Legend:
TMD8 = test: Combined drug treatment cell viability (CellTiter-Glo), ibrutinib with BET inhibitors, TMD8; assay type: cell-based; settings: JQ1 20 nM, OTX015 100 nM or medium alone (row), 3 days
Description: (§1) The DLBCL cell lines used during the experiments included TMD8, OCI-LY3, OCI-LY10, U-2932 and SU-DHL-2. DLBCL cells at either 1×10^4 cells or 2×10^4 cells were plated onto each well of a 96-W plate (Table 1). […] The 96-W plate was then incubated for 3 days. Cell viability was examined using a CellTiter-Glo assay. A 40 μL of CellTiter-Glo reagent was added directly into each well of the 96-W plate. The plate was then shaken on a Shaker ([…]) at speed 5 for 10-20 min at room temperature. Next, about 100 μL of the mixed medium was transferred to a white, non-transparent, flat bottom 96-W plate for assaying. […] Measurements were taken at room temperature. CellTiter-Glow reagents were thawed prior to use. Cells pre-plated onto a second 96-W plate and incubated at room temperature for 30 minutes were used for calibration purposes. […] CI is a quantitative description of the interaction property of the combination of two drugs.

OCI-LY10 = test: Combined drug treatment cell viability (CellTiter-Glo), ibrutinib with BET inhibitors, OCI-LY10; assay type: cell-based; settings: OCI-LY-10, JQ1 1 uM, OTX015 1 uM or medium alone (row), 3 days
Description: as §1

OCI-LY3 = test: Combined drug treatment cell viability (CellTiter-Glo), ibrutinib with BET inhibitors, OCI-LY3; assay type: cell-based; settings: OCI-LY-3, JQ1 1 uM, OTX015 1 uM or medium alone (row), 3 days
Description: as §1

U-2932 = test: Combined drug treatment cell viability (CellTiter-Glo), ibrutinib with BET inhibitors, U-2932; assay type: cell-based; settings: U2932, JQ1 20 nM, OTX015 50 nM (Table 2) or medium alone (row), 3 days
Description: as §1

SU-DHL-2 = test: Combined drug treatment cell viability (CellTiter-Glo), ibrutinib with BET inhibitors, SU-DHL-2; assay type: cell-based; settings: JQ1 100 nM, OTX015 1 uM (Table 2) or medium alone (row), 3 days
Description: as §1

[1] = system: activated B-cell like (ABC) subtype of DLBCL; settings: patients with ABC subtype of DLBCL; cited from earlier work
[2] = ibrutinib 0.0256 nM with I-BET151 200 nM
[3] = ibrutinib 0.64 nM with I-BET151 200 nM
[4] = ibrutinib 3.2 nM with I-BET151 200 nM
[5] = ibrutinib 16 nM with I-BET151 200 nM
[6] = ibrutinib 80 nM with I-BET151 200 nM
[7] = ibrutinib 400 nM with I-BET151 200 nM
[8] = ibrutinib 2000 nM with I-BET151 200 nM
[9] = ibrutinib 10000 nM with I-BET151 200 nM
[10] = ibrutinib […] with I-BET151 200 nM
[11] = ibrutinib 0.0256 nM with I-BET151 5 uM
[12] = ibrutinib 0.64 nM with I-BET151 5 uM
[13] = ibrutinib 3.2 nM with I-BET151 5 uM
[14] = ibrutinib 16 nM with I-BET151 5 uM
[15] = ibrutinib 80 nM with I-BET151 5 uM
[16] = ibrutinib 400 nM with I-BET151 5 uM
[17] = ibrutinib 2000 nM with I-BET151 5 uM
[18] = ibrutinib 10000 nM with I-BET151 5 uM
[19] = ibrutinib […] with I-BET151 5 uM

SMILES: C=CC(=O)N1CCC[C@@H](n2nc(-c3ccc(Oc4ccccc4)cc3)c3c(N)ncnc32)C1 [ibrutinib, 1-((R)-3-(4-amino-3-(4-phenoxyphenyl)-1H-pyrazolo[3,4-d]pyrimidin-1-yl)piperidin-1-yl)prop-2-en-1-one]
- luminescent signals (TMD8; [2]): 32496.06
- luminescent signals (TMD8; [3]): 29180.29
- luminescent signals (TMD8; [4]): 31383.77
- luminescent signals (TMD8; [5]): 27190.31
- luminescent signals (TMD8; [6]): 28263.05
- luminescent signals (TMD8; [7]): 25674.76
- luminescent signals (TMD8; [8]): 23421.2
- luminescent signals (TMD8; [9]): 10819.72
- luminescent signals (TMD8; [10]): 32828.16
- luminescent signals (OCI-LY10; [11]): 61548.88
- luminescent signals (OCI-LY10; [12]): 63983.91
- luminescent signals (OCI-LY10; [13]): 51190.81
- luminescent signals (OCI-LY10; [14]): 27324.38
- luminescent signals (OCI-LY10; [15]): 23511.43
- luminescent signals (OCI-LY10; [16]): 23784.91
- luminescent signals (OCI-LY10; [17]): 24452.84
- luminescent signals (OCI-LY10; [18]): 24826.24
- luminescent signals (OCI-LY10; [19]): 68196.56
- luminescent signals (OCI-LY3; [11]): 63957.7
- luminescent signals (OCI-LY3; [12]): 63322.7
- luminescent signals (OCI-LY3; [13]): 66789.02
- luminescent signals (OCI-LY3; [14]): 64655.7
- luminescent signals (OCI-LY3; [15]): 68972.2
- luminescent signals (OCI-LY3; [16]): 64472.02
- luminescent signals (OCI-LY3; [17]): 55749.79
- luminescent signals (OCI-LY3; [18]): 63477.51
- luminescent signals (OCI-LY3; [19]): 59441.78
- luminescent signals (U-2932; [2]): 63123.8
- luminescent signals (U-2932; [3]): 53722.16
- luminescent signals (U-2932; [4]): 53031.79
- luminescent signals (U-2932; [5]): 51023.93
- luminescent signals (U-2932; [6]): 49777.58
- luminescent signals (U-2932; [7]): 46009.54
- luminescent signals (U-2932; [8]): 46858.01
- luminescent signals (U-2932; [9]): 37935.94
- luminescent signals (U-2932; [10]): 57150.28
- luminescent signals (SU-DHL-2; ibrutinib 0.0256 nM with I-BET151 2 uM): 141202
- luminescent signals (SU-DHL-2; ibrutinib 0.64 nM with I-BET151 2 uM): 159399
- luminescent signals (SU-DHL-2; ibrutinib 3.2 nM with I-BET151 2 uM): 161613.5
- luminescent signals (SU-DHL-2; ibrutinib 16 nM with I-BET151 2 uM): 155353.5
- luminescent signals (SU-DHL-2; ibrutinib 80 nM with I-BET151 2 uM): 164140.7
- luminescent signals (SU-DHL-2; ibrutinib 400 nM with I-BET151 2 uM): 159908.6
- luminescent signals (SU-DHL-2; ibrutinib 2000 nM with I-BET151 2 uM): 154426.1
- luminescent signals (SU-DHL-2; ibrutinib 10000 nM with I-BET151 2 uM): 111485.8
- luminescent signals (SU-DHL-2; ibrutinib […] with I-BET151 2 uM): 146159.1
- overall response rate [1]: 41%
- overall survival [1]: 9.7 month
